Assay results published in patent US20140357633A1, “COMPOUNDS FOR INHIBITING THE INTERACTION OF BCL2 WITH BINDING PARTNERS” (NOVARTIS AG, priority 2011, published 2014).
pIC50: −log10 of the molar value.

Tests used:
[1] = target: BCL-2 (binding to BAK peptide) (Homo sapiens, UniProt P10415); test: SPR (Biacore) solution inhibition assay, BCL-2 binding to immobilized BAK peptide; conditions: biotinylated BAK peptide surface, 56 nM BCL-2, 25° C.; range = high and low IC50 values from multiple experiments; read-out: BCL2_SPR IC50 BAK
How it was run: (§1)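 Compounds (6-point threefold series, 16 μM to 0.004 nM) preincubated 1 h with 56 nM BCL-2, then injected 60 s over biotinylated peptide captured on streptavidin chips at 25° C. Running buffer: 10 mM HEPES pH 7.4, 150 mM NaCl, 1.25 mM DTT, 3% DMSO, 0.05% polysorbate 20. % inhibition versus BCL-2-only binding gave IC50.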

[2] = target: BCL-2 (binding to BAD peptide) (Homo sapiens, UniProt P10415); test: SPR (Biacore) solution inhibition assay, BCL-2 binding to immobilized BAD peptide; conditions: biotinylated BAD peptide surface, 56 nM BCL-2, 25° C.; range = high and low IC50 values from multiple experiments; read-out: BCL2_SPR IC50 BAD
How it was run: as §1

Sequence of BCL-2 (binding to BAD peptide) (P10415 whole entry): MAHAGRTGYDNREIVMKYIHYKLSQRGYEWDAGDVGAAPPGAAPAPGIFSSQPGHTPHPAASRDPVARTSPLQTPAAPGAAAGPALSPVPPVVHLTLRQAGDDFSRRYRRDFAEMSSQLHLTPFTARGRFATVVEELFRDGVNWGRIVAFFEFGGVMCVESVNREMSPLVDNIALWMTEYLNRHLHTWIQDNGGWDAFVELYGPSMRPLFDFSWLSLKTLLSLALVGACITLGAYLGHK
Sequence of BCL-2 (binding to BAK peptide) (P10415 whole entry): as above

| Structure (SMILES) | pIC50 [1] | pIC50 [2] |
| --- | --- | --- |
| CCCCN(CCCC)C(=O)c1cc(C)n(-c2ccc(NC(=O)c3cc(-c4ccccc4)nn3-c3ccc(F)cc3)cc2C(=O)N2Cc3ccccc3C[C@H]2CO)n1 [Example 120] | 6.25 to 6.31 | 6.14 |
| CCCCN(CCCC)C(=O)c1cc(C)n(-c2ccc(NC(=O)[C@@H]3COc4ccccc4O3)cc2C(=O)N2Cc3ccccc3C[C@H]2CO)n1 [Example 65] | 6.85 to 6.86 | 6.76 to 6.77 |
| CCCCN(CCCC)C(=O)c1cc(C)n(-c2ccc(NC(=O)Cc3ccccc3)cc2C(=O)N2Cc3ccccc3C[C@H]2CO)n1 [Example 5] | 6.87 to 7.01 | 6.89 to 7.02 |
| CCCCN(CCCC)C(=O)c1cc(C)n(-c2ccc(NC(=O)c3ncccc3O)cc2C(=O)N2Cc3ccccc3C[C@H]2CO)n1 [Example 62] | 6.56 to 6.62 | 6.49 to 6.50 |
| CCCCN(CCCC)C(=O)c1cc(C)n(-c2ccc(NC(=O)c3ccc(Oc4ccccc4)nc3)cc2C(=O)N2Cc3ccccc3C[C@H]2CO)n1 [Example 141] | 5.68 to 5.71 | 5.58 to 5.61 |
| CCCCN(CCCC)C(=O)c1cc(C)n(-c2ccc(NC(=O)c3cnn4cccnc34)cc2C(=O)N2Cc3ccccc3C[C@H]2CO)n1 [Example 107] | 6.28 to 6.30 | 6.13 to 6.16 |
| CCCCN(CCCC)C(=O)c1cc(C)n(-c2ccc(NC(=O)c3cc4ccccc4cn3)cc2C(=O)N2Cc3ccccc3C[C@H]2CO)n1 [Example 123] | 6.55 to 6.60 | 6.47 to 6.53 |
| CCCCN(CCCC)C(=O)c1cc(C)n(-c2ccc(NC(=O)Cc3ccc(Cl)cc3)cc2C(=O)N2Cc3ccccc3C[C@H]2CO)n1 [Example 137] | 7.13 to 7.16 | 7.03 to 7.08 |
| CCCCC(CCCC)C(=O)c1cc(C)n(-c2ccc(NC(=O)C(CC(=O)O)C3CCCCC3)cc2C(=O)N2Cc3ccccc3C[C@H]2CO)n1 (stereo partly drawn) [Example 103] | 7.28 to 7.30 | 7.25 to 7.27 |
| CCCCN(CCCC)C(=O)c1cc(C)n(-c2ccc(NC(=O)C(CC(=O)OCC)c3ccccc3)cc2C(=O)N2Cc3ccccc3C[C@H]2CO)n1 (stereo partly drawn) [Example 53] | 6.79 | 6.73 to 6.74 |
| CCCCN(CCCC)C(=O)c1cc(C)n(-c2ccc(NC(=O)CC(C(=O)O)c3ccccc3)cc2C(=O)N2Cc3ccccc3C[C@H]2CO)n1 (stereo partly drawn) [Example 42] | 7.21 to 7.26 | 7.23 to 7.29 |
| CCCCN(CCCC)C(=O)c1cc(C)n(-c2ccc(NC(=O)C(C)(C)c3ccccc3)cc2C(=O)N2Cc3ccccc3C[C@H]2CO)n1 [Example 31] | 6.84 to 6.93 | 6.84 to 6.88 |
| CCCCN(CCCC)C(=O)c1cc(C)n(-c2ccc(NC(=O)Cc3noc4ccccc34)cc2C(=O)N2Cc3ccccc3C[C@H]2CO)n1 [Example 121] | 7.23 to 7.26 | 7.17 to 7.21 |
| CCCCN(CCCC)C(=O)c1cc(C)n(-c2ccc(NC(=O)[C@H](OC)c3ccc4ccccc4c3)cc2C(=O)N2Cc3ccccc3C[C@H]2CO)n1 [Example 162] | 7.43 to 7.44 | 7.35 to 7.36 |
| CCCCN(CCCC)C(=O)c1cc(C)n(-c2ccc(NC(=O)C(C)c3ccccc3)cc2C(=O)N2Cc3ccccc3C[C@H]2CO)n1 (stereo partly drawn) [Example 29] | 6.72 to 6.74 | 6.74 to 6.79 |
| CCCCN(CCCC)C(=O)c1cc(C)n(-c2ccc(NC(=O)COc3ccc4ccccc4c3)cc2C(=O)N2Cc3ccccc3C[C@H]2CO)n1 [Example 126] | 7.30 to 7.31 | 7.21 to 7.22 |
| CCCCN(CCCC)C(=O)c1cc(C)n(-c2ccc(NC(=O)c3nn(C)c4ncccc34)cc2C(=O)N2Cc3ccccc3C[C@H]2CO)n1 [Example 45] | 6.25 to 6.30 | 6.11 to 6.16 |
| CCCCN(CCCC)C(=O)c1cc(C)n(-c2ccc(NC(=O)c3cccc(-c4ccccc4F)c3)cc2C(=O)N2Cc3ccccc3C[C@H]2CO)n1 [Example 140] | 6.54 to 6.56 | 6.46 to 6.50 |

| Structure (SMILES) | pIC50 [1] | pIC50 [2] |
| --- | --- | --- |
| CCCCN(CCCC)C(=O)c1cc(C)n(-c2ccc(NC(=O)C3CC(=O)N(CCc4ccc(OC)c(OC)c4)C3)cc2C(=O)N2Cc3ccccc3C[C@H]2CO)n1 (stereo partly drawn) [Example 104] | 6.59 to 6.60 | 6.42 to 6.46 |
| CCCCN(CCCC)C(=O)c1cc(C)n(-c2ccc(NC(=O)COC3CCCCC3)cc2C(=O)N2Cc3ccccc3C[C@H]2CO)n1 [Example 128] | 6.75 | 6.57 |
| CCCCN(CCCC)C(=O)c1cc(C)n(-c2ccc(NC(=O)C(CC#N)c3ccccc3)cc2C(=O)N2Cc3ccccc3C[C@H]2CO)n1 (stereo partly drawn) [Example 135] | 6.95 to 6.97 | 6.86 to 6.89 |
| CCCCN(CCCC)C(=O)c1cc(C)n(-c2ccc(NC(=O)c3ncoc3-c3ccccc3)cc2C(=O)N2Cc3ccccc3C[C@H]2CO)n1 [Example 44] | 6.62 to 6.63 | 6.55 to 6.56 |
| CCCCN(CCCC)C(=O)c1cc(C)n(-c2ccc(NC(=O)c3cc4cc(O)ccc4[nH]3)cc2C(=O)N2Cc3ccccc3C[C@H]2CO)n1 [Example 87] | 6.29 to 6.31 | 6.43 to 6.46 |
| CCCCN(CCCC)C(=O)c1cc(C)n(-c2ccc(NC(=O)COc3ccc(C(C)C)cc3)cc2C(=O)N2Cc3ccccc3C[C@H]2CO)n1 [Example 18] | 6.58 to 6.73 | 6.60 to 6.72 |
| CCCCN(CCCC)C(=O)c1cc(C)n(-c2ccc(NC(=O)CNC(=O)c3cccnc3)cc2C(=O)N2Cc3ccccc3C[C@H]2CO)n1 [Example 125] | 7.11 to 7.20 | 6.99 to 7.05 |
| CCCCN(CCCC)C(=O)c1cc(C)n(-c2ccc(NC(=O)CS(=O)(=O)c3ccccc3)cc2C(=O)N2Cc3ccccc3C[C@H]2CO)n1 [Example 152] | 6.45 to 6.47 | 6.41 to 6.46 |
| CCCCN(CCCC)C(=O)c1cc(C)n(-c2ccc(NC(=O)c3cc(=O)c4cc(C)ccc4o3)cc2C(=O)N2Cc3ccccc3C[C@H]2CO)n1 [Example 59] | 6.39 to 6.40 | 6.27 to 6.28 |
| CCCCN(CCCC)C(=O)c1cc(C)n(-c2ccc(NC(=O)C3=CC(c4ccccc4)NC(=O)N3)cc2C(=O)N2Cc3ccccc3C[C@H]2CO)n1 (stereo partly drawn) [Example 51] | 6.90 to 6.91 | 6.80 to 6.81 |
| CCCCN(CCCC)C(=O)c1cc(C)n(-c2ccc(NC(=O)Cc3nc(-c4ccccc4)oc3C)cc2C(=O)N2Cc3ccccc3C[C@H]2CO)n1 [Example 106] | 6.96 to 6.98 | 6.86 to 6.88 |
| CCCCN(CCCC)C(=O)c1cc(C)n(-c2ccc(NC(=O)CSc3cc(C)c(Cl)cc3Cl)cc2C(=O)N2Cc3ccccc3C[C@H]2CO)n1 [Example 129] | 7.11 to 7.15 | 7.03 to 7.05 |
| CCCCN(CCCC)C(=O)c1cc(C)n(-c2ccc(NC(=O)CCNC(C)=O)cc2C(=O)N2Cc3ccccc3C[C@H]2CO)n1 [Example 56] | 6.14 | 5.96 |
| CCCCN(CCCC)C(=O)c1cc(C)n(-c2ccc(NC(=O)CN3CC(c4ccccc4)CC3=O)cc2C(=O)N2Cc3ccccc3C[C@H]2CO)n1 (stereo partly drawn) [Example 119] | 7.01 to 7.03 | 6.95 |
| CCCCN(CCCC)C(=O)c1cc(C)n(-c2ccc(NC(=O)c3ccccc3COc3ccccc3)cc2C(=O)N2Cc3ccccc3C[C@H]2CO)n1 [Example 92] | 5.93 to 5.95 | 5.87 to 5.90 |
| CCCCN(CCCC)C(=O)c1cc(C)n(-c2ccc(NC(=O)c3ccc(Oc4ccc(F)cc4)cc3)cc2C(=O)N2Cc3ccccc3C[C@H]2CO)n1 [Example 91] | 5.38 to 5.43 | < 4.80 |
| CCCCN(CCCC)C(=O)c1cc(C)n(-c2ccc(NC(=O)CCCc3ccc([N+](=O)[O-])cc3)cc2C(=O)N2Cc3ccccc3C[C@H]2CO)n1 [Example 61] | 6.57 to 6.64 | 6.50 to 6.51 |
| CCCCN(CCCC)C(=O)c1cc(C)n(-c2ccc(NC(=O)[C@H](C)c3ccccc3)cc2C(=O)N2Cc3ccccc3C[C@H]2CO)n1 [Example 113] | 6.18 to 6.25 | 6.15 to 6.17 |
